{
  "source": "patent US20180271110A1",
  "about": "“REDUCTION OF MICROBIAL ACTIVITY AND METHOD OF PROCESSING ANIMAL AND POULTRY PRODUCTS” (Zee Company, priority 2017, published 2018)",
  "key": {"[1]": {"test_system": "Salmonella Enterica serovar enteriditis (SE)", "test": "Antimicrobial efficacy of DCDMH vs DBDMH on Salmonella-contaminated chicken legs and beef cubes (15 s agitation in solution)", "type": "cell-based", "settings": "for log Reduction Ave.: 15 s agitation, 15 s drip", "procedure": "In the following working example, a study was conducted to compare the antimicrobial efficacy of 1,3,-dichloro-5,5,-dimethylhydantoin (DCDMH) and 1,3,-dibromo-5,5,-dimethylhydantoin (DBDMH) at 200 ppm available chlorine on both chicken and beef test substrates. For sample preparation, chicken legs and beef cubes obtained from a local grocery store were used to conduct the following tests. Prior to exposure of the test substrates to the antimicrobial solutions having DCDMH or DBDMH, the test substrates were exposed for two hours in 300 mL of broth of Salmonella Enterica serovar enteriditis (SE), which had been grown to a concentration of >6 log 10 in Nutrient Broth for 2 h at 35° C. Following exposure, the test substrates were removed from the Nutrient Broth and allowed to drain and air dry for about 30 minutes at ambient room temperature before testing began.\n1. The following solutions were prepared and distributed in 200 mL aliquots into Ziploc bags:\na. 200 ppm available chlorine solutions derived from DCDMH distributed it into an appropriate number of Ziploc bags;\nb. FSIS new buffer solution containing Lecithin and Sodium thiosulfate (LST) into an appropriate number of Ziploc bags;\nc. Phosphate Buffer Solution (PBS) into an appropriate number of Ziploc bags.\n2. Into each bag of DCDMH solution, a Salmonella-contaminated test substrate was placed and agitated manually for 15 s. The test substrate was removed from the bag, allowed to drip for 15 s, then placed into a Ziploc bag containing 200 mL LST. The bag was then vigorously shaken for 45 s to neutralize the DCDMH and to release SE from the surface of the chicken leg.\n3. After the bags were shaken, 100 μL from each of the shaken bags was removed and dispensed into test tubes containing 9.9 mL of DI HOH. The contents of these tubes were used for serial dilution.\n4. As controls, a prepared test substrate was inserted into each of two bags of PBS and agitated manually for 15 s. The substrate was removed from the bag and placed directly into a Ziploc bag containing 200 mL LST. The bag was vigorously shaken for 45 s to release SE from the surface of the substrate.\n5. Repeat Step 3 with the control solutions.\n6. Serially dilute the contents of the test tubes from Step 3 above. Plate 100 μL aliquots on Salmonella-Shigella Agar (SSA), then incubate for 18-24 h at 35° C. Enumerate colonies that have black centers (presumptive SE) after incubation.\n7. Repeat the entire protocol replacing the DCDMH solution with […] solution in Step 1.a."}, "[2]": {"test_system": "Salmonella Enterica serovar enteriditis (SE)", "procedure": "In the following working example, a study was conducted to compare the antimicrobial efficacy of 1,3,-dichloro-5,5,-dimethylhydantoin (DCDMH) at various concentrations (100 ppm, 200 ppm, and 400 ppm) on beef test substrates from beef brisket and beef liver. For sample preparation, beef brisket and beef liver were cubed to have approximately […] of exposed surface. Prior to exposure of the test substrates to the antimicrobial solutions having DCDMH, the test substrates were incubated for two hours in 300 mL of broth of Salmonella Enterica serovar enteriditis (SE), which had been grown to a concentration of >6 log 10 in Nutrient Broth for 2 h at 35° C. Following exposure, the test substrates were removed from the Nutrient Broth and allowed to drain and air dry for about 30 minutes at ambient room temperature before testing began. The test was replicated 10 times for each concentration and two controls. The concentration of DCDMH was then tested on the exposed test substrates using spray and dip applications.\n1. A test substrate cube was suspended on a stainless steel hook and the antimicrobial solution was atomized onto the cube to thoroughly cover all sides until solution was dripping from the test substrate cube, which was for about 5 to about 10 seconds;\n2. The test substrate cube was allowed to drip for about 10 to about 50 seconds (to obtain total antimicrobial contact times of about 15 to about 60 seconds when combined with the exposure in step 1 above).\n3. The test substrate cube was then placed in a Ziploc bag containing 100 mL of LST solution to neutralize any residual antimicrobial chemistry;\n(§1) 4. The Ziploc bag containing the test substrate cube was then vigorously shaken for about for 45 seconds to release bacterial cells from the surface of the meat into the LST solution;\n(§2) 5. A 100 μL aliquot of LST solution from the bag was injected into 9.9 mL of sterile phosphate buffer solution;\n(§3) 6. The LST solution was serially diluted, then plated on Salmonella Shigella agar and incubated for 24 h prior to counting presumptive positive Salmonella colonies;\n(§4) 7. This procedure was repeated at each concentration of DCDMH;\n8. For controls, 2 cubes of each test substrate were treated as in steps 1-2 above, except the control substrate cubes were atomized with sterile deionized water in step 1 above. And then steps 2-6 of the process above were continued.\n1. A test substrate cube was placed in a Ziploc bag containing 100 mL of the antimicrobial solution and allowed to remain in the solution for about 15 to about 30 seconds under gentle manual agitation;\n2. The test substrate cube was removed from the test solution using sterile forceps and allowed to drip for about 0 to about 30 seconds (to obtain total antimicrobial contact times of about 15 to about 60 seconds when combined with the exposure in step 1 above);\n8. For controls, 2 cubes of each test substrate were treated as in steps 1-2 above, except the control substrate cubes were placed in 100 mL Ziploc bags of phosphate buffer solution in step 1 above. And then steps 2-6 of the process above were continued."}, "[3]": {"test_system": "Salmonella Enterica serovar enteriditis (SE)", "procedure": "In the following working example, a study was conducted to compare the antimicrobial efficacy of 1,3,-dichloro-5,5,-dimethylhydantoin (DCDMH) at various concentrations (50 ppm, 100 ppm, and 200 ppm) on chicken test substrates, namely, chicken legs and chicken liver. Prior to exposure of the test substrates to the antimicrobial solutions having DCDMH, the test substrates were incubated for two hours in 1000 mL of broth of Salmonella Enterica serovar enteriditis (SE), which had been grown to a concentration of >6 log 10 in Nutrient Broth for 2 h at 35° C. Following exposure, the test substrates were removed from the Nutrient Broth and allowed to drain and air dry for about 30 minutes at ambient room temperature before testing began. The test was replicated 10 times for each concentration and two controls. The concentration of DCDMH was then tested on the exposed test substrates using spray and dip applications.\n1. A test poultry product (e.g., chicken leg or chicken liver) was suspended on a stainless steel hook in a spray cabinet and sprayed until the part was drenched with antimicrobial solution, which was for about 5 to about 10 seconds;\n2. The test poultry product was allowed to drip for about 10 to about 50 seconds (to obtain total antimicrobial contact times of about 15 to about 60 seconds when combined with the exposure in step 1 above);\n3. The test poultry product was then placed in a Ziploc bag containing 200 mL of LST solution to neutralize any residual antimicrobial chemistry;\n4. The Ziploc bag containing the test poultry product was then vigorously shaken for about for 45 seconds to release bacterial cells from the surface of the poultry product into the LST solution;\nas §2\n6. The LST solution was serially diluted, then plated on Salmonella Shigella agar and incubated for 24-36 hours prior to counting presumptive positive Salmonella colonies;\nas §4\n8. For controls, 2 poultry legs and 2 poultry livers for the corresponding test were treated as in steps 1-2 above, except the control poultry products were drenched with sterile deionized water in step 1 above. And then steps 2-6 of the process above were continued.\n1. A test poultry product was placed in a Ziploc bag containing 200 mL of the antimicrobial solution and allowed to remain in the solution for about 15 to about 30 seconds under gentle manual agitation;\n2. The test poultry product was removed from the test solution using sterile forceps and allowed to drip for about 0 to about 30 seconds (to obtain total antimicrobial contact times of about 15 to about 60 seconds when combined with the exposure in step 1 above);\n3. The test poultry product was then placed in a Ziploc bag containing 200 mL broth of LST solution to neutralize any residual antimicrobial chemistry;\nas §1, §3\n8. For controls, 2 poultry legs and 2 poultry liver for each test were treated as in steps 1-2 above, except the test substrate cubes were placed in 200 mL Ziploc bags of phosphate buffer solution in step 1 above. And then steps 2-6 of the process above were continued.", "remark": "listed apart in the source"}, "[4]": {"settings": "beef test substrate, 200 ppm available chlorine"}, "[5]": {"settings": "chicken test substrate, 200 ppm available chlorine"}},
  "note": "Where two headings read alike, the source gives them in different places.",
  "data": [
    {"smiles": "CC1(C)C(=O)N(Br)C(=O)N1Br", "note": "[DBDMH, 1,3,-dibromo-5,5,-dimethylhydantoin, reference compound]", "values": [
      {"measurement": "log Reduction Ave.", "setting": "[1]; [4]", "value": 0.15, "unit": "log"},
      {"measurement": "log Reduction Ave.", "setting": "[1]; [5]", "value": 0.29, "unit": "log"}
    ]},
    {"smiles": "CC1(C)C(=O)N(Cl)C(=O)N1Cl", "note": "[DCDMH, 1,3,-dichloro-5,5,-dimethylhydantoin]", "values": [
      {"measurement": "Ave. Log Reduction", "setting": "[2]; Beef Liver, Active Cl 100 ppm, Dip, 60 seconds", "value": 0.90, "unit": "log"},
      {"measurement": "Ave. Log Reduction", "setting": "[2]; Beef Liver, Active Cl 200 ppm, Spray, 30 seconds", "value": 1.01, "unit": "log"},
      {"measurement": "Ave. Log Reduction", "setting": "[2]; Beef Liver, Active Cl 400 ppm, Dip, 15 seconds", "value": 1.11, "unit": "log"},
      {"measurement": "Ave. Log Reduction", "setting": "[2]; Beef Muscle, Active Cl 100 ppm, Dip, 60 seconds", "value": 0.89, "unit": "log"},
      {"measurement": "Ave. Log Reduction", "setting": "[2]; Beef Muscle, Active Cl 200 ppm, Spray, 30 seconds", "value": 0.91, "unit": "log"},
      {"measurement": "Ave. Log Reduction", "setting": "[2]; Beef Muscle, Active Cl 400 ppm, Dip, 15 seconds", "value": 1.18, "unit": "log"},
      {"measurement": "antimicrobial efficacy against S. Enteritidis", "setting": "[2]; about 100 ppm to about 400 ppm, dip or spray application, beef substrates", "value": "great antimicrobial efficacy"},
      {"measurement": "anticipated efficacy (log reduction) under normal in-plant use conditions", "setting": "[2]; normal in-plant use conditions, about 100 to about 400 ppm, dip or spray, anticipated", "value": "> 1", "unit": "log"},
      {"measurement": "antimicrobial efficacy against S. Enteritidis compared with DBDMH", "setting": "[1]; 200 ppm available chlorine, chicken and beef, short contact time", "value": "substantially greater antimicrobial efficacy"},
      {"measurement": "log Reduction Ave.", "setting": "[1]; [4]", "value": 0.51, "unit": "log"},
      {"measurement": "log Reduction Ave.", "setting": "[1]; [5]", "value": 0.64, "unit": "log"},
      {"measurement": "anticipated efficacy (log reduction) under normal in-plant use conditions", "setting": "[1]; normal in-plant use conditions, anticipated", "value": "> 1", "unit": "log"},
      {"measurement": "Ave. Log Reduction", "setting": "[3]; Chicken Leg, Active Cl 50 ppm, Dip, 60 seconds", "value": 0.78, "unit": "log"},
      {"measurement": "Ave. Log Reduction", "setting": "[3]; Chicken Leg, Active Cl 100 ppm, Spray, 30 seconds", "value": 0.86, "unit": "log"},
      {"measurement": "Ave. Log Reduction", "setting": "[3]; Chicken Leg, Active Cl 200 ppm, Dip, 15 seconds", "value": 1.22, "unit": "log"},
      {"measurement": "Ave. Log Reduction", "setting": "[3]; Chicken Liver, Active Cl 50 ppm, Dip, 60 seconds", "value": 0.69, "unit": "log"},
      {"measurement": "Ave. Log Reduction", "setting": "[3]; Chicken Liver, Active Cl 100 ppm, Spray, 30 seconds", "value": 0.72, "unit": "log"},
      {"measurement": "Ave. Log Reduction", "setting": "[3]; Chicken Liver, Active Cl 200 ppm, Dip, 15 seconds", "value": 1.07, "unit": "log"},
      {"measurement": "antimicrobial efficacy against S. Enteritidis", "setting": "[3]; about 50 ppm to about 200 ppm, dip or spray application, poultry products", "value": "great antimicrobial efficacy"},
      {"measurement": "anticipated efficacy (log reduction) under normal in-plant use conditions", "setting": "[3]; normal in-plant use conditions, about 50 to about 200 ppm, dip or spray, anticipated", "value": "> 1", "unit": "log"}
    ]}
  ]
}
